From patent US20020035061A1, “COMPOSITIONS AND METHODS FOR TREATING INFECTIONS USING CATIONIC PEPTIDES ALONE OR IN COMBINATION WITH ANTIBIOTICS” (priority 1996, published 2002)
Where two headings read alike, the source gives them in different places.

Assays:
Assay type in all cases: cell-based
[1] = system: K. pneumoniae
[2] = system: S. maltophilia
[3] = system: A. calcoaceticus
[4] = system: S. epidermidis
[5] = system: S. marcescens
[6] = system: E. cloacae
[7] = system: P. aeruginosa
[8] = system: E. coli
[9] = system: S. aureus
[10] = system: E. faecalis

Sequence | MIC ([4]; S. epidermidis strain SE010) [µg/mL] | MIC ([5]; S. marcescens strain SMS003) [µg/mL] | MIC ([6]; E. cloacae strain ECL007) [µg/mL] | MIC ([9]; S. aureus strain SA093) [µg/mL] | MIC ([1]; K. pneumoniae strain KP001) [µg/mL] | MIC ([2]; S. maltophilia strain SMA002) [µg/mL] | MIC ([3]; A. calcoaceticus strain AC002) [µg/mL] | MIC ([7]; P. aeruginosa strain PA004) [µg/mL] | MIC ([1]; K. pneumoniae KP001) [µg/mL] | MIC ([2]; S. maltophilia SMA002) [µg/mL] | MIC ([3]; A. calcoaceticus AC002) [µg/mL] | MIC ([4]; S. epidermidis SE010) [µg/mL] | MIC ([5]; S. marcescens SMS003) [µg/mL] | MIC ([6]; E. cloacae ECL007) [µg/mL] | MIC ([7]; P. aeruginosa PA004) [µg/mL] | MIC ([8]; E. coli ECO005) [µg/mL] | MIC ([9]; S. aureus SA014) [µg/mL] | MIC ([9]; S. aureus SA093) [µg/mL] | MIC ([10]; E. faecalis EFS001) [µg/mL] | MIC ([10]; E. faecalis EFS008) [µg/mL] | other results
ILRNPNNPNRRK [MBI 11B7ACN] | 4 | >128 | >128 | 1 | – | – | – | – | – | – | – | – | – | – | – | – | – | – | – | – | MIC ([1]; K. pneumoniae strain KP001, listed as MBI 11B7 ACN): 8 µg/mL; MIC ([2]; S. maltophilia strain SMA002, listed as MBI 11B7 ACN): 32 µg/mL; MIC ([3]; A. calcoaceticus strain AC002, listed as MBI 11B7 ACN): 2 µg/mL; MIC ([7]; P. aeruginosa strain PA004, listed as MBI 11B7 ACN): 128 µg/mL; MIC ([8]; E. coli strain ECO005, listed as MBI 11B7 ACN): 8 µg/mL; MIC ([9]; S. aureus strain SA014): 2 µg/mL; MIC ([10]; E. faecalis strain EFS001, listed as MBI 11B7 ACN): 1 µg/mL; MIC ([10]; E. faecalis strain EFS008): 8 µg/mL
ILRRNPNNPNRRK [MBI 11B1CNW1] | 8 | >128 | 64 | – | 32 | 32 | 16 | 64 | – | – | – | – | – | – | – | – | – | – | – | – | MIC ([8]; E. coli strain ECO005): 32 µg/mL; MIC ([9]; S. aureus strain SA014): 16 µg/mL; MIC ([10]; E. faecalis strain EFS004): 8 µg/mL
ILRRWVWWVWRRK [MBI 11F5CN] | – | – | – | – | – | – | – | – | 8 | 16 | 4 | 4 | >128 | 128 | 32 | 8 | 4 | 2 | 2 | 8 | –
ILRWAWWPWRRK [MBI 11H05CN] | – | – | – | – | – | – | – | – | 8 | 16 | 4 | 4 | >128 | >128 | 128 | 8 | 2 | 1 | 2 | 8 | –
ILRWPAWPWRRK [MBI 11H06CN] | – | – | – | – | – | – | – | – | 64 | 64 | 8 | 8 | >128 | >128 | >128 | 16 | 8 | 1 | 2 | 16 | –
ILRWPWAPWRRK [MBI 11H07CN] | – | – | – | – | – | – | – | – | 128 | 128 | 8 | 16 | >128 | >128 | >128 | 32 | 8 | 2 | 4 | 16 | –
ILRWPWRRWPWRRK [MBI 11B19CN] | – | – | – | – | – | – | – | – | 64 | 32 | 4 | 4 | >128 | >128 | 128 | 8 | 4 | 2 | 2 | 32 | –
ILRWPWWAWRRK [MBI 11H08CN] | – | – | – | – | – | – | – | – | 32 | 32 | 4 | 4 | >128 | >128 | >128 | 8 | 4 | 1 | 2 | 8 | –
ILRWPWWPARRK [MBI 11H09CN] | – | – | – | – | – | – | – | – | 64 | 64 | 4 | 16 | >128 | >128 | >128 | 32 | 8 | 2 | 4 | 64 | –
ILRWPWWPWARK [MBI 11H10CN] | – | – | – | – | – | – | – | – | 16 | 64 | 4 | 4 | >128 | >128 | >128 | 16 | 4 | 1 | 2 | 8 | –
ILRWPWWPWRAK [MBI 11H11CN] | – | – | – | – | – | – | – | – | 16 | 64 | 4 | 4 | >128 | >128 | >128 | 16 | 4 | 1 | 2 | 8 | –
ILRWPWWPWRRA [MBI 11H12CN] | – | – | – | – | – | – | – | – | 16 | 64 | 4 | 4 | >128 | >128 | >128 | 16 | 2 | 1 | 2 | 8 | –
ILRWPWWPWRRKDMILKKAGS [MBI 11B18CN] | 4 | >128 | >128 | 2 | 32 | 64 | 2 | >128 | – | – | – | – | – | – | – | – | – | – | – | – | MIC ([8]; E. coli strain ECO005): 32 µg/mL; MIC ([10]; E. faecalis strain EFS008): 4 µg/mL
ILRWPWWPWRRKMILKKAGS [MBI 11B17CN] | 4 | >128 | >128 | 2 | 16 | 32 | 2 | >128 | – | – | – | – | – | – | – | – | – | – | – | – | MIC ([8]; E. coli strain ECO005): 8 µg/mL; MIC ([10]; E. faecalis strain EFS008): 4 µg/mL
ILRWPWWPWWPWRRK [MBI 11A9CN] | 4 | >128 | 128 | 2 | 32 | 32 | 8 | 128 | – | – | – | – | – | – | – | – | – | – | – | – | MIC ([8]; E. coli strain ECO005): 32 µg/mL; MIC ([9]; S. aureus strain SA014): 4 µg/mL; MIC ([10]; E. faecalis strain EFS001): 2 µg/mL; MIC ([10]; E. faecalis strain EFS008): 8 µg/mL
ILRWWVWWVWWRRK [MBI 11F6CN] | – | – | – | – | – | – | – | – | 32 | 64 | 16 | 8 | >128 | 64 | 128 | 32 | 16 | 8 | 16 | 16 | –
ILRYVYYVYRRK [MBI 11A8CN] | 16 | >128 | >128 | 1 | 128 | 32 | 8 | >128 | – | – | – | – | – | – | – | – | – | – | – | – | MIC ([8]; E. coli strain ECO005): 32 µg/mL; MIC ([10]; E. faecalis strain EFS001): 4 µg/mL
KRRWPWWPWKKLI [MBI 11CNR] | – | – | – | – | – | – | – | – | 4 | 32 | 4 | 4 | 128 | >128 | 32 | 8 | – | 4 | 4 | – | –
KRRWPWWPWRLI [MBI 11B7CNR] | 4 | >128 | 64 | 2 | 8 | 32 | 4 | 64 | – | – | – | – | – | – | – | – | – | – | – | – | MIC ([8]; E. coli strain ECO005): 8 µg/mL; MIC ([10]; E. faecalis strain EFS001): 4 µg/mL
KRRWVWWVWRLI [MBI 11F4CNR] | 8 | >128 | 32 | 8 | 32 | 32 | 16 | 64 | – | – | – | – | – | – | – | – | – | – | – | – | MIC ([8]; E. coli strain ECO005): 32 µg/mL; MIC ([10]; E. faecalis strain EFS008): 32 µg/mL
LRWPWWPW [MBI 11G26CN] | – | – | – | – | – | – | – | – | 32 | 128 | 2 | 4 | >128 | >128 | >128 | 32 | 4 | 0.5 | 2 | 4 | –
LRWWWPWRRK [MBI 11G25CN] | – | – | – | – | – | – | – | – | 16 | 32 | 2 | 2 | >128 | >128 | 64 | 8 | 2 | 1 | 2 | 16 | –
LWPWWPWRRK [MBI 11G24CN] | – | – | – | – | – | – | – | – | 16 | 32 | 4 | 4 | >128 | >128 | 128 | 16 | 2 | 1 | 2 | 8 | –
